The values that follow come from PubChem BioAssay (NCI).

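Compound exposure: 48 hours, 5 concentrations, 96-well plates. TGI marks complete inhibition of growth.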

Some test systems named below: HL-60(TB) leukemia; IGROV1 ovarian; MALME-3M melanoma; NCI-H522 lung; SK-MEL-28 melanoma; CAKI-1 renal; MDA-MB-435; SK-MEL-2 melanoma; UACC-62 melanoma; BT-549 breast.
Assay in all cases: DTP human tumour cell line panel, 48 h

For the molecule `c1ccc(C2[C@@H]3CCCc4ccccc4C3=NN2c2ccccc2)cc1` (some centres not stated), the TGI with HL-60(TB) leukemia, in the assay on IGROV1 ovarian, with MALME-3M melanoma, in the assay with NCI-H522 lung and with SK-MEL-28 melanoma was over 100 µM in each case.

`CN(C)CCNc1nc2c(no[n+]2[O-])c2ccccc12`: the TGI with CAKI-1 renal was found to be 60.6 µM; in the assay on IGROV1 ovarian, 53 µM; in the assay with MALME-3M melanoma it was 37.1 µM; in the assay on MDA-MB-435 it was 35.2 µM; with NCI-H522 lung, 65.4 µM; in the assay on SK-MEL-2 melanoma, 40.4 µM. Moreover, the figures for the TGI with SK-MEL-28 melanoma and in the assay on UACC-62 melanoma were over 100 µM and 41.4 µM, respectively.

For `CC1(C)c2ccccc2C(O)C12CCC(=O)CC2` (configuration not stated), the TGI with HL-60(TB) leukemia, with IGROV1 ovarian, in the assay on MALME-3M melanoma, in the assay with MDA-MB-435, with NCI-H522 lung and in the assay on SK-MEL-2 melanoma was over 100 µM throughout. In addition, the TGI in the assay on SK-MEL-28 melanoma and in the assay with UACC-62 melanoma was over 100 µM in each case.

Consider `CC[C@H](C)C1=C(OC(C)=O)[N@+]2([O-])Oc3ccc(-c4c(OC(C)=O)c(OC(C)=O)c(-c5ccc(OC(C)=O)cc5)c(OC(C)=O)c4OC(C)=O)cc3O[C@]2([C@@H](C)CC)C(=O)N1OC(C)=O`, for which the TGI is over 50 µM with CAKI-1 renal; 21.7 µM in the assay with HL-60(TB) leukemia; 27.6 µM in the assay on IGROV1 ovarian; over 50 µM in the assay on MALME-3M melanoma; over 50 µM with MDA-MB-435; 16 µM with NCI-H522 lung. Further, the concentration for total growth inhibition (TGI) with SK-MEL-2 melanoma was 24.1 µM; with SK-MEL-28 melanoma, over 50 µM; in the assay with UACC-62 melanoma, 17.7 µM.

As for `C[N+](C)(C)CC1CCCC/C1=N\O` (configuration not stated), the TGI in the assay with HL-60(TB) leukemia, in the assay with IGROV1 ovarian, in the assay on MALME-3M melanoma, in the assay on NCI-H522 lung, in the assay on SK-MEL-2 melanoma and with SK-MEL-28 melanoma was over 100 µM each time. Also, the concentration for total growth inhibition (TGI) in the assay on UACC-62 melanoma is over 100 µM.

On to `COC(=O)C1C2CC3C(OC(=O)C31)C2OC(=O)[C@](OC)(c1ccccc1)C(F)(F)F` (some centres not stated), for which the concentration for total growth inhibition (TGI) in the assay on CAKI-1 renal, with HL-60(TB) leukemia, in the assay with IGROV1 ovarian, in the assay with MALME-3M melanoma, in the assay on NCI-H522 lung and with SK-MEL-2 melanoma was over 100 µM in each case. In the assay on SK-MEL-28 melanoma, this molecule gave a TGI of over 100 µM.

For the molecule `COc1ccc(N2C(=O)C3CC4=CC(=O)C[C@H]4[C@H]32)cc1` (some centres not stated), the TGI in the assay on BT-549 breast was over 100 µM; in the assay on CAKI-1 renal it was 87.6 µM; in the assay with MDA-MB-435 it was over 100 µM; in the assay on SK-MEL-2 melanoma it was over 100 µM; in the assay with SK-MEL-28 melanoma it was over 100 µM; in the assay with UACC-62 melanoma, over 100 µM.

On to `CC(=O)CC(=O)/C=C/c1cccs1`, for which the TGI in the assay with CAKI-1 renal was over 100 µM; in the assay on HL-60(TB) leukemia, 72.5 µM; with IGROV1 ovarian, over 100 µM; in the assay on MALME-3M melanoma, over 100 µM; in the assay on NCI-H522 lung, over 100 µM; in the assay with SK-MEL-2 melanoma, over 100 µM. The same molecule registered a total growth inhibition concentration (TGI) with UACC-62 melanoma of over 100 µM.

Consider `Cc1cccc(NC2=NCCO2)c1Cl`, for which the total growth inhibition concentration (TGI) with HL-60(TB) leukemia, in the assay with IGROV1 ovarian, in the assay on MALME-3M melanoma, in the assay with MDA-MB-435, with SK-MEL-28 melanoma and in the assay on UACC-62 melanoma was over 100 µM in each case.

For `CC(C)(C)OC(=O)N1N=NC2C3OC(CC3=O)C21` (configuration not stated), the TGI in the assay on CAKI-1 renal, with IGROV1 ovarian, with MALME-3M melanoma, in the assay with NCI-H522 lung, in the assay with SK-MEL-2 melanoma and in the assay on SK-MEL-28 melanoma was over 100 µM throughout. This molecule also had a TGI in the assay on UACC-62 melanoma of over 100 µM.

Regarding `O=C1N[C@@H](COc2ccc(C=Nc3ccc(CCc4ccc(N=Cc5ccc(OC[C@@H]6COC(=O)N6)cc5)cc4)cc3)cc2)CO1`, the total growth inhibition concentration (TGI) in the assay with CAKI-1 renal, with HL-60(TB) leukemia, in the assay with IGROV1 ovarian, with MALME-3M melanoma, in the assay with MDA-MB-435 and in the assay on NCI-H522 lung was over 100 µM in each case. The TGI in the assay on SK-MEL-2 melanoma, with SK-MEL-28 melanoma and in the assay with UACC-62 melanoma was over 100 µM throughout.

Turning to `NC(=O)N/N=C(/c1nc2ccc([N+](=O)[O-])cc2[nH]c1=O)C(O)c1ccco1` (configuration not stated), the TGI with CAKI-1 renal, in the assay on HL-60(TB) leukemia, in the assay on IGROV1 ovarian, in the assay on MALME-3M melanoma, with NCI-H522 lung and in the assay on SK-MEL-28 melanoma was over 100 µM throughout. In the assay on UACC-62 melanoma, the TGI is over 100 µM.

With `O=C1NC2(C=Cc3c(ccc4ccccc34)O2)Oc2ccccc21` (configuration not stated), the TGI in the assay with HL-60(TB) leukemia is 27.4 µM; in the assay on IGROV1 ovarian, over 100 µM; in the assay on MALME-3M melanoma it was over 100 µM; in the assay with NCI-H522 lung, 38.8 µM; with SK-MEL-2 melanoma, 56.5 µM; in the assay with SK-MEL-28 melanoma, over 100 µM. In addition, the TGI with UACC-62 melanoma is over 100 µM.

Regarding `CC(=O)N(CN1C(=O)CCC1C(=O)O)c1ccccc1Cl` (configuration not stated), the TGI in the assay on CAKI-1 renal, with HL-60(TB) leukemia, in the assay with IGROV1 ovarian, in the assay with MALME-3M melanoma, in the assay with MDA-MB-435 and in the assay with NCI-H522 lung was over 100 µM in each case. In addition, the TGI in the assay with SK-MEL-2 melanoma, with SK-MEL-28 melanoma and in the assay with UACC-62 melanoma was over 100 µM in each case.

Regarding `CC(C)N(C(C)C)P(OCCC#N)OC1CC(n2cnc3c(=O)[nH]cnc32)OC1COC(=O)NCCCCCCNC(=O)OC(C)(C)c1ccc(-c2ccccc2)cc1` (configuration not stated), the total growth inhibition concentration (TGI) with CAKI-1 renal was over 100 µM; in the assay with HL-60(TB) leukemia, 36.4 µM; with IGROV1 ovarian, 38.4 µM; in the assay on MALME-3M melanoma, 89.4 µM; with NCI-H522 lung it was 32.6 µM; with SK-MEL-2 melanoma, over 100 µM. In addition, the TGI is 57 µM with SK-MEL-28 melanoma and 35.3 µM with UACC-62 melanoma.

On to `CCN(CC)CCNc1ccc2ncn3c4cc(=O)ccc4c(O)c1c23`, for which the TGI with CAKI-1 renal was determined as 13.4 µM; with HL-60(TB) leukemia, 11.9 µM; in the assay on IGROV1 ovarian it was 24.3 µM; with MALME-3M melanoma, 14.9 µM; in the assay on NCI-H522 lung, 5.36 µM; in the assay on SK-MEL-2 melanoma, 21.7 µM. The concentration for total growth inhibition (TGI) was determined as 16.9 µM with SK-MEL-28 melanoma and 14 µM in the assay with UACC-62 melanoma.

`C[N+](C)(N)c1nc(N)c(C#N)c(C#N)c1C#N`: the total growth inhibition concentration (TGI) with CAKI-1 renal, in the assay with HL-60(TB) leukemia, in the assay with IGROV1 ovarian, with MALME-3M melanoma, in the assay on MDA-MB-435 and with NCI-H522 lung was over 10 µM throughout. In addition, the concentration for total growth inhibition (TGI) in the assay with SK-MEL-2 melanoma, in the assay on SK-MEL-28 melanoma and with UACC-62 melanoma was over 10 µM each time.

With `COc1ccc(C2C(Cl)C(=O)N2NC(=O)Cc2ccccc2)cc1OC` (configuration not stated), the TGI with CAKI-1 renal, with HL-60(TB) leukemia, in the assay with IGROV1 ovarian, with MALME-3M melanoma, with NCI-H522 lung and with SK-MEL-2 melanoma was over 100 µM throughout. For the same molecule, the TGI in the assay on SK-MEL-28 melanoma and in the assay with UACC-62 melanoma was over 100 µM throughout.

In the case of `CCOC(=O)NC(=O)c1c[nH]c(=O)[nH]c1=O`, the TGI with CAKI-1 renal, with HL-60(TB) leukemia, with IGROV1 ovarian, in the assay on MALME-3M melanoma, in the assay with SK-MEL-2 melanoma and with SK-MEL-28 melanoma was over 100 µM throughout. Also, in the assay with UACC-62 melanoma, the TGI is over 100 µM.

On to `COC[C@@H](Cc1ccc(OC)c(OC)c1)[C@@H](COC)Cc1ccc(OC)c(OC)c1`, for which the concentration for total growth inhibition (TGI) with HL-60(TB) leukemia, in the assay with IGROV1 ovarian, in the assay with MALME-3M melanoma, with NCI-H522 lung, with SK-MEL-2 melanoma and in the assay on SK-MEL-28 melanoma was over 100 µM each time. The molecule further yielded a TGI in the assay with UACC-62 melanoma of over 100 µM.

As for `N#C/C(=C\c1ccccc1Br)C(=O)c1ccccc1`, the total growth inhibition concentration (TGI) with CAKI-1 renal was over 100 µM; in the assay with HL-60(TB) leukemia, 15.9 µM; in the assay with MALME-3M melanoma, over 100 µM; in the assay on NCI-H522 lung, over 100 µM; in the assay on SK-MEL-2 melanoma, over 100 µM; with SK-MEL-28 melanoma, over 59.1 µM. The TGI in the assay with UACC-62 melanoma is 87.5 µM.

Take `CC1(C)C2CCC(N)(C2)C1O` (configuration not stated): the TGI in the assay on BT-549 breast, in the assay on CAKI-1 renal, in the assay with IGROV1 ovarian, in the assay with MDA-MB-435, in the assay on SK-MEL-2 melanoma and with SK-MEL-28 melanoma was over 100 µM each time. The same molecule yielded a TGI in the assay on UACC-62 melanoma of over 100 µM.

For `CC1(C)CC2C(C1=O)C1(C)CCCC2(C)C1=O` (configuration not stated), the TGI in the assay on CAKI-1 renal, with HL-60(TB) leukemia, in the assay on IGROV1 ovarian, in the assay with MALME-3M melanoma, with MDA-MB-435 and in the assay with SK-MEL-2 melanoma was over 100 µM throughout. Further, the TGI in the assay with SK-MEL-28 melanoma and in the assay with UACC-62 melanoma was over 100 µM in each case.

Consider `COc1cccc(-c2cc(=O)c3cc(Cl)cnc3[nH]2)c1`, for which the total growth inhibition concentration (TGI) in the assay with BT-549 breast was over 100 µM; in the assay on CAKI-1 renal, 71.8 µM; with IGROV1 ovarian, over 100 µM; in the assay with MALME-3M melanoma, over 100 µM; with NCI-H522 lung, 3.51 µM; in the assay on SK-MEL-2 melanoma it was 98.2 µM. Moreover, the TGI in the assay on SK-MEL-28 melanoma was over 100 µM; in the assay on UACC-62 melanoma it was over 55.6 µM.

Regarding `O=C1C[C@H](c2ccc(O)c(O)c2)Oc2cc(O)cc(O)c21`, the total growth inhibition concentration (TGI) with CAKI-1 renal, in the assay with HL-60(TB) leukemia, in the assay on IGROV1 ovarian, in the assay with MALME-3M melanoma, in the assay on NCI-H522 lung and in the assay with SK-MEL-2 melanoma was over 100 µM throughout. In addition, the TGI in the assay on SK-MEL-28 melanoma and in the assay on UACC-62 melanoma was over 100 µM in each case.

As a reminder, the TGI is the concentration giving total growth inhibition. A higher TGI goes with less potent growth arrest.
